“Also recorded” adds a separate entry of the source. Read-outs that look alike come from different tables or passages of the source. Peptide text beside a SMILES is read from it.
Key:
ZIKV [1] = experiment: Peptide treatment of Vero cells already infected with ZIKV, FFU assay of culture supernatants; assay type: cell-based, Zika virus; settings: for ZIKV in culture supernatant: 3 hours post-infection, peptide 40 μM
ZIKV (PRVABC59) = experiment: Immunofluorescence of ZIKV envelope in Vero cells; assay type: cell-based, Zika virus; settings: ZIKV exposed to peptide before infection
ZIKV [2] = experiment: ZIKV entry into Vero cells, viral RNA by qRT-PCR; settings: ZIKV pre-incubated with 200 μM peptide
ZIKV [3] = experiment: Transmission electron microscopy of peptide-treated ZIKV; settings: 200 μM peptide, 10 min treatment
ZIKV (PRVABC59 strain) = settings: for activity of truncated and mutant Yodha peptides against ZIKV compared with parent peptide: FIG. 7E; for reduction of ZIKV: dose escalation, FFA
DENV 3 = experiment: FFA of DENV 3 incubated with peptide
H1N1 = assay type: cell-based, human influenza virus; settings: incubated with virus at 37° C. for 1 hour, MDCK cells
H3N2 = assay type: cell-based, human influenza virus; settings: incubated with virus at 37° C. for 1 hour, MDCK cells
H1N2 = assay type: cell-based, influenza virus
H3N1 = assay type: cell-based, influenza virus
influenza viruses = assay type: cell-based, influenza virus
[4] = tested on: H2 avian influenza hemagglutinin; assay type: binding; settings: biotinylated Yodha peptide, streptavidin PE detection
[5] = tested on: H5 avian influenza hemagglutinin; assay type: binding; settings: biotinylated Yodha peptide, streptavidin PE detection
[6] = tested on: H7 avian influenza hemagglutinin; assay type: binding; settings: biotinylated Yodha peptide, streptavidin PE detection
[7] = tested on: H9 avian influenza hemagglutinin; assay type: binding; settings: biotinylated Yodha peptide, streptavidin PE detection
[8] = tested on: Recombinant hemagglutinins from three H3 viruses; assay type: binding, influenza virus; settings: biotinylated Yodha peptide, streptavidin PE detection
Clade A HIV = experiment: HIV inhibition, graded doses of peptide; assay type: cell-based; settings: 40 uM peptide
Experimental: (§1) FIG. 10A. […] Clades A, B and C HIV viruses were exposed to graded doses (5 um-160 uM) of either Yodha peptide or control OVA peptide.

Clade B HIV = experiment: HIV inhibition, graded doses of peptide; assay type: cell-based; settings: 40 uM peptide
Experimental: as §1

Clade C HIV = experiment: HIV inhibition, graded doses of peptide; assay type: cell-based; settings: 40 uM peptide
Experimental: as §1

DENV 1 = experiment: FFA of DENV 1 incubated with peptide
DENV 2 = experiment: FFA of DENV 2 incubated with peptide
DENV 4 = experiment: FFA of DENV 4 incubated with peptide
PRVABC ZIKV = experiment: ZIKV infection of anti-Ifnar1 mAb treated mice, viremia and viral burden by real time PCR

In the case of “OVA257-264 peptide (ESIINFEK; UniProt P01012 257-264, looked up, fragment) [OVA peptide, reference compound]”, the “ZIKV in culture supernatant” value (ZIKV [1]) is reported as “not detected”, the “expression of ZIKV envelope in Vero cells (immunofluorescence)” value (ZIKV (PRVABC59)) is reported as “no such effect” and the “amount of ZIKV RNA detected versus virus-only samples” value (ZIKV [2]) is reported as “Comparable amounts”. The “morphology of ZIKV particles (electron microscopy)” value (ZIKV [3]) was “intact virions”.

With SMLLLFFLGTISLSLCQ [short Yodha peptide] the “activity of truncated and mutant Yodha peptides against ZIKV compared with parent peptide” value (from here on “activity … compared with parent peptide”) (ZIKV (PRVABC59 strain)) was “significantly improved activity”.

For PMLLLFFLGTISLSLCQ [Short 12 peptide], the “activity … compared with parent peptide” value (ZIKV (PRVABC59 strain)) was “significantly improved activity” and the “efficiency against DENV3 infection compared with full length Yodha peptide” value (DENV 3; dose escalation) was “more efficient”.

In the case of PMLLLFFLGTISLSLCQDDQERC [S 1P Yodha], the “activity … compared with parent peptide” value (ZIKV (PRVABC59 strain)) is reported as “significantly more effective”.

`CC[C@H](C)[C@H](NC(=O)[C@@H](NC(=O)CNC(=O)[C@H](CC(C)C)NC(=O)[C@H](Cc1ccccc1)NC(=O)[C@H](Cc1ccccc1)NC(=O)[C@H](CC(C)C)NC(=O)[C@H](CC(C)C)NC(=O)[C@H](CC(C)C)NC(=O)[C@H](CCSC)NC(=O)[C@@H](N)CO)[C@@H](C)O)C(=O)N[C@@H](CO)C(=O)N[C@@H](CC(C)C)C(=O)N[C@@H](CO)C(=O)N[C@@H](CC(C)C)C(=O)N[C@@H](CS)C(=O)N[C@@H](CCC(N)=O)C(=O)N[C@@H](CC(=O)O)C(=O)N[C@@H](CC(=O)O)C(=O)N[C@@H](CCC(N)=O)C(=O)N[C@@H](CCC(=O)O)C(=O)N[C@@H](CCCNC(=N)N)C(=O)N[C@@H](CS)C(=O)O` [Yodha peptide] (H-SMLLLFFLGTISLSLCQDDQERC-OH; N-terminus and C-terminus assumed) was tested, and the “reduction in ZIKV production” value (ZIKV [1]; 48 and 72 hours post-infection, peptide 40 μM added after infection) was 60-70%, the “ZIKV in culture supernatant” value (ZIKV [1]) was “not detected” and the “ZIKV titers in the supernatants” value (ZIKV [1]; peptide 40 μM added after infection) was “significantly reduced”. The “expression of ZIKV envelope in Vero cells (immunofluorescence)” value (ZIKV (PRVABC59)) was “decreased expression of ZIKV envelope”, the “virucidal activity against H1N1” value (H1N1) was “virucidal; also recorded: neutralizes” and the “virucidal activity against H3N2” value (H3N2) was “virucidal; also recorded: neutralizes”. The “virucidal activity against H1N2” value (H1N2) was “virucidal”, the “virucidal activity against H3N1” value (H3N1) was “virucidal” and the “activity against subtypes of influenza viruses” value (influenza viruses) was “effective against all subtypes of influenza viruses; also recorded: effective against may subtypes of influenza viruses”. The “binding to H2 hemagglutinin” value [4] was “binds”, the “binding to H5 hemagglutinin” value [5] was “binds” and the “binding to H7 hemagglutinin” value [6] was “binds”. The “binding to H9 hemagglutinin” value [7] was “binds”, the “binding to HA from H3 viruses” value [8] was “binds” and the “inhibition of clade A HIV” value (Clade A HIV) was “efficiently inhibited”. The “inhibition of clade B HIV” value (Clade B HIV) was “efficiently inhibited”, the “inhibition of clade C HIV” value (Clade C HIV) was “efficiently inhibited” and the “time of exposure to virus within which the virus is neutralized” value (ZIKV (PRVABC59 strain)) was ≤ 5 min. For the same compound, the “reduction of ZIKV” value (ZIKV (PRVABC59 strain); 10 μM peptide) was 35%, the “reduction of ZIKV” value (ZIKV (PRVABC59 strain); 20 μM peptide) was 50% and the “reduction of ZIKV” value (ZIKV (PRVABC59 strain); 40 μM peptide) was 65%. For the same compound, the “reduction of ZIKV” value (ZIKV (PRVABC59 strain); 80 μM peptide) was 80%, the “reduction of ZIKV” value (ZIKV (PRVABC59 strain); 160 μM peptide) was 90% and the IC50 (ZIKV (PRVABC59 strain); PRVABC59 strain, 2 h) was 20 µM. For the same compound, the “virucidal activity against DENV 1” value (DENV 1) was “virucidal; also recorded: neutralizes”, the “neutralization of DENV 1” value (DENV 1; 50 μM peptide) was “easily neutralized; also recorded: effective” and the “virucidal activity against DENV 2” value (DENV 2) was “virucidal; also recorded: neutralizes”. For the same compound, the “neutralization of DENV 2” value (DENV 2; 50 μM peptide) was “easily neutralized; also recorded: effective”, the “virucidal activity against DENV 3” value (DENV 3) was “virucidal; also recorded: neutralizes” and the “dose needed for neutralization of DENV 3” value (DENV 3; 50 μM versus 160 μM peptide) was “required higher dose”. For the same compound, the “higher dose required to be effective against DENV 4” value (DENV 4) was 160 µM, the “virucidal activity against DENV 4” value (DENV 4) was “virucidal; also recorded: neutralizes” and the “neutralization of DENV 4” value (DENV 4; 50 μM peptide) was “easily neutralized; also recorded: effective”. The “morphology of ZIKV particles (electron microscopy)” value (ZIKV [3]) was “disruption of viral particles”, the “ZIKV viremia in serum” value (PRVABC ZIKV; day 3 post-infection) was “reduces” and the “ZIKV viral burden in tissues” value (PRVABC ZIKV; day 6, eye and spleen) was “reduces”.

In the case of PMLLLFFLGTISLSLCQEEERGA [Variant 12], the “effect against ZIKV relative to Yodha peptide” value (ZIKV (PRVABC59 strain); FIG. 7C) is reported as 1.6 fold.

With SMLLLFFAGTISLSLCQDDQERC [peptide 8] the “virucidal activity of alanine-scanning mutants compared with Yodha peptide” value (ZIKV (PRVABC59 strain); Yodha set as zero, FIG. 6B) was “statistically significant (p=0.02) antiviral activity than the parental peptide”.
